Experimental data taken from ChEMBL document CHEMBL1255216, “Exploration of the amine terminus in a novel series of 1,2,4-triazolo-3-yl-azabicyclo[3.1.0]hexanes as selective dopamine D3 receptor antagonists” (J Med Chem, 2010).

What was measured:
D(2) dopamine receptor = D(2) dopamine receptor (Homo sapiens, UniProt P14416); assay: Antagonist activity at human dopamine D2L receptor expressed in CHO cells assessed as inhibition of quinelorane-induced [35S]GTPgammaS binding; assay type: functional, cell-based
D(3) dopamine receptor = D(3) dopamine receptor (Homo sapiens, UniProt P35462); assay: Antagonist activity at human dopamine D3 expressed in CHO cells assessed as inhibition of quinelorane-induced [35S]GTPgammaS binding; assay type: functional, cell-based
Cytochrome P450 3A4 = Cytochrome P450 3A4 (Homo sapiens, UniProt P08684)
Description: Inhibition of human CYP3A4

Cytochrome P450 2C9 = Cytochrome P450 2C9 (Homo sapiens, UniProt P11712)
Description: Inhibition of human CYP2C9

Cytochrome P450 2C19 = Cytochrome P450 2C19 (Homo sapiens, UniProt P33261)
Description: Inhibition of human CYP2C19

Liver microsomes [1] = conditions: human, 0.5 h, 0.5 µM
[2] = biological target: Voltage-gated inwardly rectifying potassium channel KCNH2 (Homo sapiens, UniProt Q12809)
Liver microsomes [3] = conditions: rat, 0.5 h, 0.5 µM
Cytochrome P450 1A2 = biological target: T1, Cytochrome P450 1A2 (Homo sapiens, UniProt P05177)
T1 sequence (P05177 whole entry): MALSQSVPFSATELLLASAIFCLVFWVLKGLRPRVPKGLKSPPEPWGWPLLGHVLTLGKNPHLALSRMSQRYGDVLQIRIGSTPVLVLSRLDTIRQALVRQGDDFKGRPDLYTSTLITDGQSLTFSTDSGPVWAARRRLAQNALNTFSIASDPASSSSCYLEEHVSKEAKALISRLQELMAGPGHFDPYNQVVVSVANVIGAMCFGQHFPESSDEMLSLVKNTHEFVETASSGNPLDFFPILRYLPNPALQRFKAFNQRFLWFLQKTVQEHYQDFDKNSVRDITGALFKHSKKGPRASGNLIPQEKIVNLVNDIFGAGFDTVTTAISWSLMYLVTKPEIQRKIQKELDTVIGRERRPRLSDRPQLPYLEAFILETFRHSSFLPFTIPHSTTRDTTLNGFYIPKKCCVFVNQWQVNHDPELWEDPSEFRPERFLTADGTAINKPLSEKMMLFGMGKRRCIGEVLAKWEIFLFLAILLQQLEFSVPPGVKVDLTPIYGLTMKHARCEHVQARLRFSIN
Description: Inhibition of human CYP1A2

Cytochrome P450 2D6 = Cytochrome P450 2D6 (Homo sapiens, UniProt P10635)
Cytochrome P450 2D6, sequence (P10635 whole entry): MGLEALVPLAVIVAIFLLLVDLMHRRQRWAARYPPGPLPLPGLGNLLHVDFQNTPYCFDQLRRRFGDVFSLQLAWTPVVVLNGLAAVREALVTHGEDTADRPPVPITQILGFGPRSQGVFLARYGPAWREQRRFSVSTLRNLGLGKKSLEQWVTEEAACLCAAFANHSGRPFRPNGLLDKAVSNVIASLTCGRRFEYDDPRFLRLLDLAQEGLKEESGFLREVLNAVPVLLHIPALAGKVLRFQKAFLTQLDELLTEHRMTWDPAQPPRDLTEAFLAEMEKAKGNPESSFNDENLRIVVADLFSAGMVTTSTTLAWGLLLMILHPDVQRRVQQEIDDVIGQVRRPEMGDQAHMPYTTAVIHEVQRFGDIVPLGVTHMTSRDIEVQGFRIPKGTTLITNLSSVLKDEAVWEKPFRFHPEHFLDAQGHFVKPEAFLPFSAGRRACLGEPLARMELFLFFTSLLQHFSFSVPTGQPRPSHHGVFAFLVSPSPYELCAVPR
Description: Inhibition of human CYP2D6

D(3) dopamine receptor, sequence (P35462 whole entry): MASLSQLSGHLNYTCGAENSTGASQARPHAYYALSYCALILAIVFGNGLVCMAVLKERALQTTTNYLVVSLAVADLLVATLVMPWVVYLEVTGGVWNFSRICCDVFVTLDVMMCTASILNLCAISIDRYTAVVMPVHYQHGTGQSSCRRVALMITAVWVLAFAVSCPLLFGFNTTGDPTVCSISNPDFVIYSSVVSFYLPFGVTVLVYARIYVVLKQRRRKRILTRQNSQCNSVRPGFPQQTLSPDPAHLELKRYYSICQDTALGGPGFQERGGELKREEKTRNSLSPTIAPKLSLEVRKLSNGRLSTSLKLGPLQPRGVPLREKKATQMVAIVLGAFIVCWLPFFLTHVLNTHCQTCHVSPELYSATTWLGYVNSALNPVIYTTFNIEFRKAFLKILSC
D(2) dopamine receptor, sequence (P14416 whole entry): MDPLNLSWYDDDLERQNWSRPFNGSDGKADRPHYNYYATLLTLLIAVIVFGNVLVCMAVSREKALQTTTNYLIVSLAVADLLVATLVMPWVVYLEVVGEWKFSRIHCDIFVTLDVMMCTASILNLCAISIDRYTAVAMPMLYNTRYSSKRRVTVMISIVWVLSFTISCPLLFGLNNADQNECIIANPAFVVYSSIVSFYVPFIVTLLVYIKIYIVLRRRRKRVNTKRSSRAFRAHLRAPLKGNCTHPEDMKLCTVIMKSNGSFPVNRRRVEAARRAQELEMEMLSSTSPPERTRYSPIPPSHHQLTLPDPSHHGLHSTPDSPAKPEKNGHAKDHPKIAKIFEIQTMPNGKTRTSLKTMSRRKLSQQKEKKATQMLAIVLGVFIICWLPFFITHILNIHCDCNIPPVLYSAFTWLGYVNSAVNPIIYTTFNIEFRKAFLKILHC
Cytochrome P450 3A4, sequence (P08684 whole entry): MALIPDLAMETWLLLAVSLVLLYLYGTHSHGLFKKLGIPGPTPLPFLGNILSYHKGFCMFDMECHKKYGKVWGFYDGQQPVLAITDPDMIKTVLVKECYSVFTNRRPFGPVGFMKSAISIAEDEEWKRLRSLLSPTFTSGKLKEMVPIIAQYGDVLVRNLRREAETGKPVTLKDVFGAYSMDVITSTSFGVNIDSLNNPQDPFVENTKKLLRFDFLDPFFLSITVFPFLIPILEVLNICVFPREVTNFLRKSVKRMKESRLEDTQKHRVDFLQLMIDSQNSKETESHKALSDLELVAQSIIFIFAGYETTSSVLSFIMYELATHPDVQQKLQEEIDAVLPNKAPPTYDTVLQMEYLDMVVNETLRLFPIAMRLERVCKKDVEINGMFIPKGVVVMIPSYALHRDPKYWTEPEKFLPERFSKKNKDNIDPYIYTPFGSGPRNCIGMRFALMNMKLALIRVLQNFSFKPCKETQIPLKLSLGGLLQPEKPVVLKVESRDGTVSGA
Voltage-gated inwardly rectifying potassium channel KCNH2, sequence (Q12809 whole entry): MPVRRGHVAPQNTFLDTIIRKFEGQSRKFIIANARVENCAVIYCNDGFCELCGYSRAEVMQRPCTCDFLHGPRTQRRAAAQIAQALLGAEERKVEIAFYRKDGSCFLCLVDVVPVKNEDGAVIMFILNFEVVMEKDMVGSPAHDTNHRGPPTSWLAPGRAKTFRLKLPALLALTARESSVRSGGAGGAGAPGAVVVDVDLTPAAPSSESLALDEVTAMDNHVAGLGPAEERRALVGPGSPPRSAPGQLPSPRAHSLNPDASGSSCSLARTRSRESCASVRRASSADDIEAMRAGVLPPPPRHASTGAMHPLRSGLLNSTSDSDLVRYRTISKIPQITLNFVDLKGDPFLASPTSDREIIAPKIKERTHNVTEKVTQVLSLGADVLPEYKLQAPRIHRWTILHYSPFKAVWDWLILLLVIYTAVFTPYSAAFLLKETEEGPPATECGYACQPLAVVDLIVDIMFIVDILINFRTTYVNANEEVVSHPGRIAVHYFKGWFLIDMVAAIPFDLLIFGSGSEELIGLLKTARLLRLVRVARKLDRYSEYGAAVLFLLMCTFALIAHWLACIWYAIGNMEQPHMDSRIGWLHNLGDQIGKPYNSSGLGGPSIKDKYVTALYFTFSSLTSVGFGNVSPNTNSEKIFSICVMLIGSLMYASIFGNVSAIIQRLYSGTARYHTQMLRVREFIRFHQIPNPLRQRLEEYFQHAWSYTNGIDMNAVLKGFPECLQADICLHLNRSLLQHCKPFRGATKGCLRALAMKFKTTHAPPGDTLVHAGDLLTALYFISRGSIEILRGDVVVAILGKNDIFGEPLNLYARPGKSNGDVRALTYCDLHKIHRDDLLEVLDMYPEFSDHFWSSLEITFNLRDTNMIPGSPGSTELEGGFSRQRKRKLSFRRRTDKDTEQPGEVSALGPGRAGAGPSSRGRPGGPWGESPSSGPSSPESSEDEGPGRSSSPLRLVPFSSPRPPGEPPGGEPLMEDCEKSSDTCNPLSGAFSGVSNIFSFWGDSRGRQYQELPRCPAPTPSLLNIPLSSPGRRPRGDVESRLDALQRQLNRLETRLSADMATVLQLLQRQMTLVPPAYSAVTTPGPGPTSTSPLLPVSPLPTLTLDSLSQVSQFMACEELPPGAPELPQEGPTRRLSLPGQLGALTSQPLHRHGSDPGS
Cytochrome P450 2C9, sequence (P11712 whole entry): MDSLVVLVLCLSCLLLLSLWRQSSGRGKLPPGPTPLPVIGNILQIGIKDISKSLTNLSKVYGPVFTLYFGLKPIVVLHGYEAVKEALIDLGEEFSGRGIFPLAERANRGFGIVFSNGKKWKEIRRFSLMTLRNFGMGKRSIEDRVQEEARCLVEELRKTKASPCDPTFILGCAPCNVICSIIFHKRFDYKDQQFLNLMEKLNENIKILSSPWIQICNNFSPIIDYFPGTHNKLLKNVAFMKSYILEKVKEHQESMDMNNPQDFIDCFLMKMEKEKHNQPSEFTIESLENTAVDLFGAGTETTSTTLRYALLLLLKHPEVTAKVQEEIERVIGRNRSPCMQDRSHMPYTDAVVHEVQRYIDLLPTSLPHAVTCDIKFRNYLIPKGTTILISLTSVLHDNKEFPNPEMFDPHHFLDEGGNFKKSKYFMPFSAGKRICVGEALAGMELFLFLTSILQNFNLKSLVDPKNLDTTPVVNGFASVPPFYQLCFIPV
Cytochrome P450 2C19, sequence (P33261 whole entry): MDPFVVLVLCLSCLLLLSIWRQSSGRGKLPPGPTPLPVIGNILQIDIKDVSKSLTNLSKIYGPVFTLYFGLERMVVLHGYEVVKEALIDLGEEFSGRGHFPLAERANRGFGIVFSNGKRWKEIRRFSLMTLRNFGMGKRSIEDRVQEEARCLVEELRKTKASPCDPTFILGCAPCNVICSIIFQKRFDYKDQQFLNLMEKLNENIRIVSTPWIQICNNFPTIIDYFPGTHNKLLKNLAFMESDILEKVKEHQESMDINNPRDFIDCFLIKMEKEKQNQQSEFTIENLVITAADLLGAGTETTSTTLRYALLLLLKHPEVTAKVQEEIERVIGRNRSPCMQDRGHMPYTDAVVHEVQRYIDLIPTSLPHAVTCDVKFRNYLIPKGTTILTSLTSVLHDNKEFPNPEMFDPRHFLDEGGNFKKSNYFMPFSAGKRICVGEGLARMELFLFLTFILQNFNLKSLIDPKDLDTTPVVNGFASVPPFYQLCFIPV

| Structure (SMILES) | Ki (D(2) dopamine receptor) [nM] | Ki (D(3) dopamine receptor) [nM] | other results |
| --- | --- | --- | --- |
| Cc1ncoc1-c1nnc(SCCCN2[C@@H]3CC[C@H]2C[C@@H](c2ccc(C(F)(F)F)cc2)C3)n1C | 398 | 10 |  |
| Cc1ncoc1-c1nnc(SCCCN2CCC3(c4ccc(C(F)(F)F)cc4)CC3C2)n1C (centres undefined) |  | 39.8 |  |
| Cc1ncoc1-c1nnc(SCCCN2CCC3(CCCc4ccc(Br)cc43)C2)n1C (centres undefined) | 316 | 15.8 |  |
| Cc1ncoc1-c1nnc(SCCCN[C@@H]2CC[C@]3(c4ccc(C(F)(F)F)cc4)CC23)n1C (stereo in doubt; 24) | 501 | 3.98 | IC50 (Cytochrome P450 3A4): > 4000 nM; IC50 (Cytochrome P450 2C9): > 4000 nM; IC50 (Cytochrome P450 2C19): > 4000 nM; CL (Liver microsomes [1]): < 0.5 mL/min/g; IC50 [2]: 631 nM; CL (Liver microsomes [3]): < 0.5 mL/min/g; IC50 (Cytochrome P450 1A2): > 4000 nM; IC50 (Cytochrome P450 2D6): > 4000 nM |
| Cc1ncoc1-c1nnc(SCCCN[C@@H]2CC[C@]3(c4ccc(C(F)(F)F)cc4F)CC23)n1C (some centres undefined) | 200 | 3.16 | IC50 [2]: 631 nM |
| Cc1ncoc1-c1nnc(SCCCN[C@@H]2CC[C@]3(c4ccc(C(F)(F)F)cc4)CC23)n1C (stereo in doubt; 22) | > 3160 | 126 | IC50 [2]: 251 nM |
| Cc1ncoc1-c1nnc(SCCCN2CCC3(c4ccccc4)CC3C2)n1C (centres undefined) |  | 158 |  |
| COc1ccc2c(c1)CCCC21CCN(CCCSc2nnc(-c3ocnc3C)n2C)C1 (centres undefined) | 1000 | 100 |  |
| Cn1c(SCCCN2CCC3CC3(c3ccc(C(F)(F)F)cc3)CC2)nnc1-c1ccnnc1 (centres undefined) | 398 | 3.98 |  |
| COc1cccc2c1CCCC21CCN(CCCSc2nnc(-c3ocnc3C)n2C)C1 (centres undefined) | 398 | 79.4 |  |
| Cc1ncoc1-c1nnc(SCCCN2CCC3(CCCc4cc(Br)ccc43)C2)n1C (centres undefined) |  | 7.94 |  |
| Cc1nc(C)c(-c2nnc(SCCCN3CCC4(CCc5ccc(F)cc54)C3)n2C)s1 (centres undefined) | 398 | 50.1 | IC50 [2]: 6310 nM |
| Cc1ncoc1-c1nnc(SCCCN2[C@@H]3CC[C@H]2C[C@@H](c2ccc(C(F)(F)F)cc2F)C3)n1C | > 3160 | 6.31 |  |
| Cc1ncoc1-c1nnc(SCCCN2CCC3CC3(c3ccc(C(F)(F)F)cc3)CC2)n1C (centres undefined) | 100 | 3.98 |  |
| Cc1nc(C)c(-c2nnc(SCCCN3CCC4(CCc5cc(Cl)ccc54)C3)n2C)s1 (centres undefined) | 398 | 31.6 | IC50 [2]: 2510 nM |
| Cc1nc(C)c(-c2nnc(SCCCN3CCC4CC4(c4ccc(C(F)(F)F)cc4)CC3)n2C)s1 (centres undefined) | 200 | 3.98 | IC50 [2]: 631 nM |

| Structure (SMILES) | Ki (D(2) dopamine receptor) [nM] | Ki (D(3) dopamine receptor) [nM] | other results |
| --- | --- | --- | --- |
| Cc1ncoc1-c1nnc(SCCCN2CCC3(c4cccc(C(F)(F)F)c4)CC3C2)n1C (centres undefined) | 2510 | 6.31 |  |
| Cc1ncoc1-c1nnc(SCCCN2CCC3(CCOc4ccccc43)C2)n1C (centres undefined) | > 3160 | 100 |  |
| Cc1ncoc1-c1nnc(SCCCN2CCC3(CCc4ccc(Br)cc43)C2)n1C (centres undefined) | 39.8 | 2.51 |  |
| Cc1ncoc1-c1nnc(SCCCN2CCC3CC3(c3cccc(C(F)(F)F)c3)C2)n1C (centres undefined) |  | 12.6 |  |
| Cc1ncoc1-c1nnc(SCCCN2CCC3CC3(c3ccc(C(F)(F)F)cc3)C2)n1C (centres undefined) | 501 | 7.94 | IC50 [2]: 2000 nM |
| Cc1ncoc1-c1nnc(SCCCN2CCC3(CCc4c(Br)cccc43)C2)n1C (centres undefined) | 251 | 7.94 |  |
| Cc1nc(C)c(-c2nnc(SCCCN3CCC4CC4(c4ccc(C(F)(F)F)cc4)CC3)n2C)o1 (centres undefined) |  | 10 |  |
| Cc1ncoc1-c1nnc(SCCCNC2CC3CC3(c3ccccc3)C2)n1C (centres undefined) | 251 | 50.1 |  |
| Cc1ncoc1-c1nnc(SCCCN2CCC3CC3(c3ccccc3)C2)n1C (centres undefined) | 398 | 126 |  |
| COc1ccc2c(c1)C1(CCC2)CCN(CCCSc2nnc(-c3ocnc3C)n2C)C1 (centres undefined) |  | 31.6 |  |
| CCOc1ccc2c(c1)Oc1cc(OCC)ccc1C21OC(=O)c2ccccc21 [DIETHOXYFLOURESCEIN] |  |  | IC50 (Cytochrome P450 3A4): 1000 nM |
| Cc1ncoc1-c1nnc(SCCCN2CCC3(CCc4cc(F)ccc43)C2)n1C (centres undefined) | 100 | 158 |  |
| Cc1ncoc1-c1nnc(SCCCN2CCC3(CCc4cc(Br)ccc43)C2)n1C (centres undefined) | 126 | 5.01 |  |
| Cc1ncoc1-c1nnc(SCCCN2[C@@H]3CC[C@H]2C[C@@H](c2ccc(C(C)(C)C)cc2)C3)n1C | 398 | 0.631 | IC50 (Cytochrome P450 3A4): > 5000 nM; IC50 (Cytochrome P450 2C9): > 5000 nM; IC50 (Cytochrome P450 2C19): > 5000 nM; CL (Liver microsomes [1]): 0.9 mL/min/g; CL (Liver microsomes [3]): 7.9 mL/min/g; IC50 (Cytochrome P450 1A2): > 5000 nM; IC50 (Cytochrome P450 2D6): > 5000 nM |
| Cc1ncoc1-c1nnc(SCCCNC2CC[C@]3(c4ccc(C(F)(F)F)cc4)CC23)n1C (single isomer, unassigned) | > 3160 | 251 | IC50 [2]: 2510 nM |
| Cc1ncoc1-c1nnc(SCCCN[C@@H]2CC3C[C@]3(c3ccc(C(F)(F)F)cc3F)C2)n1C (some centres undefined) | > 3160 | 31.6 |  |
